Laboratory results from US9961898B2, “Method for controlling plant disease” (SUMITOMO CHEMICAL COMPANY, LIMITED, priority 2008, dated 2018).

Tests used:
Format in all cases: in vivo
[1] = test system: Pythium disease; assay: Seed treatment, emergence of corn seedlings in Pythium-infested soil (tray test); details: 14 days 10° C. then 11 days 18° C.; for Ratio of sound non-transgenic seeds: non-transgenic corn seeds; for Ratio of sound transgenic seeds: transgenic corn seeds (glyphosate tolerance, rootworm resistance)
Experimental: Ethaboxam, formulated in a flowable concentrate for seed treatment use, was added to water so that the total slurry applied to a specified amount of seed would deliver a designated concentration of ethaboxam per 100 KG seed. The prepared slurry was applied to non-transgenic corn seeds and to transgenic corn seeds having both glyphosate tolerance and rootworm resistance. In a tray, Kimpack (absorbent cellulose wadding, trademark of Kimberly-Clark) was placed and wetted. Each of the corn seed types of each treatment rate was placed on the Kimpack and covered with soil, which is a 1:1 mixture of Pythium-infested field soil and sand. After keeping the soil saturated for 14 days at 10° C., the trays were transferred to 18° C. for 11 days.

[2] = test system: Pythium spp.; assay: Seed treatment, emergence of corn under field conditions; details: for Ratio of sound non-transgenic seeds: non-transgenic corn seeds; for Ratio of sound transgenic seeds: transgenic corn seeds (glyphosate tolerance, rootworm resistance)
Experimental: (§1) Ethaboxam, formulated in a flowable concentrate for seed treatment use, was added to water so that the total slurry applied to a specified amount of seed would deliver a designated concentration. The prepared slurry was applied to non-transgenic corn seeds and transgenic corn seeds having both glyphosate tolerance and rootworm resistance. […] Emergence (%) was determined at 7 and 14 DAP and recorded in Table 2.

[3] = test system: Pythium ultimum; assay: Seed treatment, emergence of cotton under field conditions; details: for Ratio of sound non-transgenic seeds: non-transgenic cotton seeds; for Ratio of sound transgenic seeds: transgenic cotton seeds (Bacillus thuringiensis endotoxins, glyphosate tolerant)
Experimental: as §1
The same procedure as Test example 2 was conducted, except that cotton seeds which express Bacillus thuringiensis endotoxins and tolerant against glyphosate, were used in place of corn seeds. Disease incited by Pythium ultimum is reduced of the […]. The transgenic cotton source provided higher field stand establishment of seedlings when compared to the non-transgenic cotton. (Table 3).

CCNc1nc(CC)c(C(=O)NC(C#N)c2cccs2)s1 (centres unmarked) [ethaboxam, N-(cyano-2-thienylmethyl)-4-ethyl-2-(ethylamino)-5-thiazolecarboxamide]
Ratio of sound non-transgenic seeds ([1]; ethaboxam 0.05 gai/100 kg seed): 39%
Ratio of sound non-transgenic seeds ([1]; ethaboxam 0.1 gai/100 kg seed): 41%
Ratio of sound non-transgenic seeds ([1]; ethaboxam 0.5 gai/100 kg seed): 47%
Ratio of sound non-transgenic seeds ([1]; ethaboxam 1.0 gai/100 kg seed): 59%
Ratio of sound transgenic seeds ([1]; ethaboxam 0.05 gai/100 kg seed): 57%
Ratio of sound transgenic seeds ([1]; ethaboxam 0.1 gai/100 kg seed): 59%
Ratio of sound transgenic seeds ([1]; ethaboxam 0.5 gai/100 kg seed): 65%
Ratio of sound transgenic seeds ([1]; ethaboxam 1.0 gai/100 kg seed): 67%
Ratio of sound non-transgenic seeds ([2]; ethaboxam 0.05 gai/100 kg seed): 74.5%
Ratio of sound non-transgenic seeds ([2]; ethaboxam 0.1 gai/100 kg seed): 78.25%
Ratio of sound non-transgenic seeds ([2]; ethaboxam 0.5 gai/100 kg seed): 76.25%
Ratio of sound non-transgenic seeds ([2]; ethaboxam 1.0 gai/100 kg seed): 77.75%
Ratio of sound non-transgenic seeds ([2]; ethaboxam 5 gai/100 kg seed): 81%
Ratio of sound non-transgenic seeds ([2]; ethaboxam 10 gai/100 kg seed): 76.25%
Ratio of sound transgenic seeds ([2]; ethaboxam 0.05 gai/100 kg seed): 86.25%
Ratio of sound transgenic seeds ([2]; ethaboxam 0.1 gai/100 kg seed): 85%
Ratio of sound transgenic seeds ([2]; ethaboxam 0.5 gai/100 kg seed): 89.25%
Ratio of sound transgenic seeds ([2]; ethaboxam 1.0 gai/100 kg seed): 87.75%
Ratio of sound transgenic seeds ([2]; ethaboxam 5 gai/100 kg seed): 86%
Ratio of sound transgenic seeds ([2]; ethaboxam 10 gai/100 kg seed): 88.5%
Ratio of sound non-transgenic seeds ([3]; ethaboxam 0.05 gai/100 kg seed): 1.75%
Ratio of sound non-transgenic seeds ([3]; ethaboxam 0.1 gai/100 kg seed): 6.25%
Ratio of sound non-transgenic seeds ([3]; ethaboxam 0.5 gai/100 kg seed): 10.25%
Ratio of sound non-transgenic seeds ([3]; ethaboxam 1.0 gai/100 kg seed): 7%
Ratio of sound non-transgenic seeds ([3]; ethaboxam 5 gai/100 kg seed): 9.5%
Ratio of sound non-transgenic seeds ([3]; ethaboxam 10 gai/100 kg seed): 6.5%
Ratio of sound transgenic seeds ([3]; ethaboxam 0.05 gai/100 kg seed): 7.5%
Ratio of sound transgenic seeds ([3]; ethaboxam 0.1 gai/100 kg seed): 6.25%
Ratio of sound transgenic seeds ([3]; ethaboxam 0.5 gai/100 kg seed): 6%
Ratio of sound transgenic seeds ([3]; ethaboxam 1.0 gai/100 kg seed): 14.25%
Ratio of sound transgenic seeds ([3]; ethaboxam 5 gai/100 kg seed): 8.5%
Ratio of sound transgenic seeds ([3]; ethaboxam 10 gai/100 kg seed): 17.75%
